Test results reported in ChEMBL document CHEMBL4177730, “Rational modification of semaxanib and sunitinib for developing a tumor growth inhibitor targeting ATP binding site of tyrosine kinase” (2018).
Active and inactive are the calls of the source.

Experiments:
Type in all cases: functional, cell-based
UO-31 = assay: Growth inhibition of human UO31 cells at 10 uM after 48 hrs by sulforhodamine B assay
NCI-H460 = assay: Growth inhibition of human NCI-H460 cells at 10 uM after 48 hrs by sulforhodamine B assay
OVCAR-3 = assay: Growth inhibition of human OVCAR3 cells at 10 uM after 48 hrs by sulforhodamine B assay
HCC 2998 = assay: Growth inhibition of human HCC2998 cells at 10 uM after 48 hrs by sulforhodamine B assay
SN12C = assay: Growth inhibition of human SN12C cells at 10 uM after 48 hrs by sulforhodamine B assay
UACC-62 = assay: Growth inhibition of human UACC62 cells at 10 uM after 48 hrs by sulforhodamine B assay
NCI-H522 = assay: Growth inhibition of human NCI-H522 cells at 10 uM after 48 hrs by sulforhodamine B assay
M14 = assay: Growth inhibition of human M14 cells at 10 uM after 48 hrs by sulforhodamine B assay
786-0 = assay: Growth inhibition of human 786-0 cells at 10 uM after 48 hrs by sulforhodamine B assay
SF-295 = assay: Growth inhibition of human SF295 cells at 10 uM after 48 hrs by sulforhodamine B assay
U-251 = assay: Growth inhibition of human U251 cells at 10 uM after 48 hrs by sulforhodamine B assay
SF-268 = assay: Growth inhibition of human SF268 cells at 10 uM after 48 hrs by sulforhodamine B assay
LOX IMVI = assay: Growth inhibition of human LOXIMVI cells at 10 uM after 48 hrs by sulforhodamine B assay
HCT-116 = assay: Growth inhibition of human HCT116 cells at 10 uM after 48 hrs by sulforhodamine B assay
SK-OV-3 = assay: Growth inhibition of human SKOV3 cells at 10 uM after 48 hrs by sulforhodamine B assay
OVCAR-5 = assay: Growth inhibition of human OVCAR5 cells at 10 uM after 48 hrs by sulforhodamine B assay
HT-29 = assay: Growth inhibition of human HT-29 cells at 10 uM after 48 hrs by sulforhodamine B assay
MCF7 = assay: Growth inhibition of human MCF7 cells at 10 uM after 48 hrs by sulforhodamine B assay
T47D = assay: Growth inhibition of human T47D cells at 10 uM after 48 hrs by sulforhodamine B assay
MDA-MB-468 = assay: Growth inhibition of human MDA-MB-468 cells at 10 uM after 48 hrs by sulforhodamine B assay
RXF 393 = assay: Growth inhibition of human RXF393 cells at 10 uM after 48 hrs by sulforhodamine B assay
EKVX = assay: Growth inhibition of human EKVX cells at 10 uM after 48 hrs by sulforhodamine B assay
TK-10 = assay: Growth inhibition of human TK10 cells at 10 uM after 48 hrs by sulforhodamine B assay
CCRF-CEM = assay: Growth inhibition of human CCRF-CEM cells at 10 uM after 48 hrs by sulforhodamine B assay
DU-145 = assay: Growth inhibition of human DU145 cells at 10 uM after 48 hrs by sulforhodamine B assay
NCI-H23 = assay: Growth inhibition of human NCI-H23 cells at 10 uM after 48 hrs by sulforhodamine B assay
CAKI-1 = assay: Growth inhibition of human CAKI-1 cells at 10 uM after 48 hrs by sulforhodamine B assay
A498 = assay: Growth inhibition of human A498 cells at 10 uM after 48 hrs by sulforhodamine B assay
BT-549 = assay: Growth inhibition of human BT549 cells at 10 uM after 48 hrs by sulforhodamine B assay
Hs-578T = assay: Growth inhibition of human Hs 578T cells at 10 uM after 48 hrs by sulforhodamine B assay
KM12 = assay: Growth inhibition of human KM12 cells at 10 uM after 48 hrs by sulforhodamine B assay
MDA-MB-231 = assay: Growth inhibition of human MDA-MB-231 cells at 10 uM after 48 hrs by sulforhodamine B assay
MDA-MB-435 = assay: Growth inhibition of human MDA-MB-435 cells at 10 uM after 48 hrs by sulforhodamine B assay
PC-3 = assay: Growth inhibition of human PC3 cells at 10 uM after 48 hrs by sulforhodamine B assay
SK-MEL-5 = assay: Growth inhibition of human SK-MEL-5 cells at 10 uM after 48 hrs by sulforhodamine B assay
SF-539 = assay: Growth inhibition of human SF539 cells at 10 uM after 48 hrs by sulforhodamine B assay
ACHN = assay: Growth inhibition of human ACHN cells at 10 uM after 48 hrs by sulforhodamine B assay
NCI-H226 = assay: Growth inhibition of human NCI-H226 cells at 10 uM after 48 hrs by sulforhodamine B assay
SK-MEL-28 = assay: Growth inhibition of human SK-MEL-28 cells at 10 uM after 48 hrs by sulforhodamine B assay
A549 = assay: Growth inhibition of human A549/ATCC cells at 10 uM after 48 hrs by sulforhodamine B assay
SK-MEL-2 = assay: Growth inhibition of human SK-MEL-2 cells at 10 uM after 48 hrs by sulforhodamine B assay
SR = assay: Growth inhibition of human SR cells at 10 uM after 48 hrs by sulforhodamine B assay
MOLT-4 = assay: Growth inhibition of human MOLT4 cells at 10 uM after 48 hrs by sulforhodamine B assay
HL-60(TB) = assay: Growth inhibition of human HL-60(TB) cells at 10 uM after 48 hrs by sulforhodamine B assay
SW-620 = assay: Growth inhibition of human SW620 cells at 10 uM after 48 hrs by sulforhodamine B assay
SNB-19 = assay: Growth inhibition of human SNB19 cells at 10 uM after 48 hrs by sulforhodamine B assay
OVCAR-4 = assay: Growth inhibition of human OVCAR4 cells at 10 uM after 48 hrs by sulforhodamine B assay
COLO 205 = assay: Growth inhibition of human COLO205 cells at 10 uM after 48 hrs by sulforhodamine B assay
K562 = assay: Growth inhibition of human K562 cells at 10 uM after 48 hrs by sulforhodamine B assay
NCI-H322M = assay: Growth inhibition of human NCI-H322M cells at 10 uM after 48 hrs by sulforhodamine B assay
HOP-62 = assay: Growth inhibition of human HOP62 cells at 10 uM after 48 hrs by sulforhodamine B assay
IGROV-1 = assay: Growth inhibition of human IGROV1 cells at 10 uM after 48 hrs by sulforhodamine B assay
HOP-92 = assay: Growth inhibition of human HOP92 cells at 10 uM after 48 hrs by sulforhodamine B assay
RPMI-8226 = assay: Growth inhibition of human RPMI8226 cells at 10 uM after 48 hrs by sulforhodamine B assay
HCT-15 = assay: Growth inhibition of human HCT15 cells at 10 uM after 48 hrs by sulforhodamine B assay
NCI/ADR-RES = assay: Growth inhibition of human NCI-ADR-RES cells at 10 uM after 48 hrs by sulforhodamine B assay
Malme-3M = assay: Growth inhibition of human MALME-3M cells at 10 uM after 48 hrs by sulforhodamine B assay
OVCAR-8 = assay: Growth inhibition of human OVCAR8 cells at 10 uM after 48 hrs by sulforhodamine B assay
SNB-75 = assay: Growth inhibition of human SNB75 cells at 10 uM after 48 hrs by sulforhodamine B assay

Measured: growth inhibition (GI)

O=C1/C(=C\c2cccn2C(=O)c2ccccc2)c2ccccc2N1c1c(Cl)cccc1Cl
inactive: UO-31 | NCI-H460 | OVCAR-3 | HCC 2998 | SN12C | UACC-62 | NCI-H522 | M14 | 786-0 | SF-295 | U-251 | SF-268 | LOX IMVI | HCT-116 | SK-OV-3 | OVCAR-5 | HT-29 | MCF7 | T47D | MDA-MB-468 | RXF 393 | EKVX | TK-10 | CCRF-CEM | DU-145 | NCI-H23 | CAKI-1 | A498 | BT-549 | Hs-578T | KM12 | MDA-MB-231 | MDA-MB-435 | PC-3 | SK-MEL-5 | SF-539 | ACHN | NCI-H226 | SK-MEL-28 | A549 | SK-MEL-2 | SR | MOLT-4 | HL-60(TB) | SW-620 | SNB-19 | OVCAR-4 | COLO 205 | K562 | NCI-H322M | HOP-62 | IGROV-1 | HOP-92 | RPMI-8226 | HCT-15 | NCI/ADR-RES | Malme-3M | OVCAR-8 | SNB-75

Cc1ccc(S(=O)(=O)n2cccc2/C=C2\C(=O)N(c3c(Cl)cccc3Cl)c3ccccc32)cc1
inactive: UO-31 | NCI-H460 | OVCAR-3 | HCC 2998 | SN12C | UACC-62 | NCI-H522 | M14 | 786-0 | SF-295 | U-251 | SF-268 | LOX IMVI | HCT-116 | SK-OV-3 | OVCAR-5 | HT-29 | MCF7 | T47D | MDA-MB-468 | RXF 393 | EKVX | TK-10 | CCRF-CEM | DU-145 | NCI-H23 | CAKI-1 | A498 | BT-549 | Hs-578T | KM12 | MDA-MB-231 | MDA-MB-435 | PC-3 | SK-MEL-5 | SF-539 | ACHN | NCI-H226 | SK-MEL-28 | A549 | SK-MEL-2 | SR | MOLT-4 | HL-60(TB) | SW-620 | SNB-19 | OVCAR-4 | COLO 205 | K562 | NCI-H322M | HOP-62 | IGROV-1 | HOP-92 | RPMI-8226 | HCT-15 | NCI/ADR-RES | Malme-3M | OVCAR-8 | SNB-75
